± gives the standard deviation of the averaged measurements.
Assays:
[1] = tested on: UT-SCC-8; assay: relative IC50 (midpoint of the fitted curve; maximal inhibition may be below 50%); higher = less potent; details: treatment time: 3 days
Procedure, shortened: (§1)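 Viability of HPV-negative HNSCC cell lines was measured by CellTiter-Glo 2.0 luminescence. Cells were seeded at 500 cells/well in 384-well plates on plastic, on Matrigel- or Myogel-coated wells (500 µg/mL), or embedded in Matrigel or Myogel plus rat collagen I, then given compounds at five 10-fold concentrations for 3 days, with signals normalised to vehicle (0.1% DMSO) and cell-killing control wells. Fitting of percent-inhibition dose–response curves in the FIMM pipeline yielded IC50, maximal inhibition and drug sensitivity score.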

[2] = tested on: UT-SCC-73; assay: as above; details: treatment time: 3 days
Procedure, shortened: as §1

[3] = tested on: UT-SCC-40; assay: as above; details: treatment time: 3 days
Procedure, shortened: as §1

[4] = tested on: UT-SCC-28; assay: as above; details: culture condition: embedded in Matrigel; treatment time: 3 days
Procedure, shortened: as §1

[5] = tested on: UT-SCC-42A; assay: as above; details: treatment time: 3 days
Procedure, shortened: as §1

[6] = tested on: UT-SCC-81; assay: as above; details: treatment time: 3 days
Procedure, shortened: as §1

[7] = tested on: UT-SCC-106A; assay: as above; details: treatment time: 3 days
Procedure, shortened: as §1

[8] = tested on: UT-SCC-24B; assay: as above; details: treatment time: 3 days
Procedure, shortened: as §1

[9] = tested on: UT-SCC-42B; assay: as above; details: treatment time: 3 days
Procedure, shortened: as §1

[10] = tested on: UT-SCC-44; assay: as above; details: treatment time: 3 days
Procedure, shortened: as §1

[11] = tested on: UT-SCC-14; assay: as above; details: treatment time: 3 days
Procedure, shortened: as §1

[12] = tested on: UT-SCC-8; assay: maximal % inhibition of viability relative to DMSO; higher = stronger effect; details: treatment time: 3 days
Procedure, shortened: as §1

[13] = tested on: UT-SCC-73; assay: as above; details: treatment time: 3 days
Procedure, shortened: as §1

[14] = tested on: UT-SCC-40; assay: as above; details: treatment time: 3 days
Procedure, shortened: as §1

[15] = tested on: UT-SCC-28; assay: as above; details: treatment time: 3 days
Procedure, shortened: as §1

[16] = tested on: UT-SCC-42A; assay: as above; details: treatment time: 3 days
Procedure, shortened: as §1

[17] = tested on: UT-SCC-106A; assay: as above; details: treatment time: 3 days
Procedure, shortened: as §1

[18] = tested on: UT-SCC-24B; assay: as above; details: treatment time: 3 days
Procedure, shortened: as §1

[19] = tested on: UT-SCC-44; assay: as above; details: treatment time: 3 days
Procedure, shortened: as §1

[20] = culture condition: embedded in Matrigel
[21] = culture condition: on top of Matrigel
[22] = culture condition: on top of Myogel
[23] = culture condition: embedded in Myogel + collagen I
[24] = culture condition: plastic 2D (no matrix)

SMILES: Cn1cnc2c(F)c(Nc3ccc(Br)cc3Cl)c(C(=O)NOCCO)cc21 [Selumetinib]
- relative IC50 [1, 20]: 163 nM
- relative IC50 [1, 21]: 176 nM
- relative IC50 [1, 22]: 139 nM
- relative IC50 [2, 20]: 80 nM
- relative IC50 [2, 23]: 78.3 nM
- relative IC50 [2, 21]: 83.2 nM
- relative IC50 [2, 22]: 122 nM
- relative IC50 [2, 24]: 117 nM
- relative IC50 [3, 20]: 50.9 nM
- relative IC50 [3, 23]: 41.5 nM
- relative IC50 [3, 21]: 61 nM
- relative IC50 [4]: 79.9 nM
- relative IC50 [5, 23]: 263 nM
- relative IC50 [5, 22]: 111 nM
- relative IC50 [6, 20]: 53.5 nM
- relative IC50 [6, 21]: 95.3 nM
- relative IC50 [7, 20]: 56.8 nM
- relative IC50 [7, 24]: 56.3 nM
- relative IC50 [8, 20]: 169 nM
- relative IC50 [8, 23]: 165 nM
- relative IC50 [8, 21]: 173 nM
- relative IC50 [8, 22]: 177 nM
- relative IC50 [8, 24]: 117 nM
- relative IC50 [9, 20]: 86.8 nM
- relative IC50 [9, 21]: 266 nM
- relative IC50 [9, 22]: 268 nM
- relative IC50 [10, 20]: 95.2 nM
- relative IC50 [10, 21]: 108 nM
- relative IC50 [10, 22]: 151 nM
- relative IC50 [11, 20]: 74.2 nM
- relative IC50 [11, 21]: 279 nM
- maximal % inhibition of viability [12, 20]: 49.4 ± 8.9%
- maximal % inhibition of viability [12, 23]: 33.9 ± 6.9%
- maximal % inhibition of viability [12, 21]: 47.1 ± 5.1%
- maximal % inhibition of viability [12, 22]: 50.4 ± 5.8%
- maximal % inhibition of viability [12, 24]: 53.4 ± 9.7%
- maximal % inhibition of viability [13, 20]: 81.9 ± 1.5%
- maximal % inhibition of viability [13, 23]: 54.4 ± 8.1%
- maximal % inhibition of viability [13, 21]: 80 ± 1.5%
- maximal % inhibition of viability [13, 22]: 65.4 ± 1.1%
- maximal % inhibition of viability [13, 24]: 75.3 ± 1.2%
- maximal % inhibition of viability [14, 20]: 79.8 ± 1.3%
- maximal % inhibition of viability [14, 23]: 62.5 ± 8%
- maximal % inhibition of viability [14, 21]: 75.8 ± 3.5%
- maximal % inhibition of viability [14, 22]: 52.1 ± 3.1%
- maximal % inhibition of viability [14, 24]: 56.2 ± 5.7%
- maximal % inhibition of viability [15, 20]: 38.9 ± 18%
- maximal % inhibition of viability [15, 23]: 39.8 ± 4.3%
- maximal % inhibition of viability [15, 21]: 35.8 ± 9.2%
- maximal % inhibition of viability [15, 24]: 29.4 ± 9.5%
- maximal % inhibition of viability [16, 20]: 54.2 ± 7.8%
- maximal % inhibition of viability [16, 23]: 24.9 ± 13%
- maximal % inhibition of viability [16, 21]: 55.1 ± 8.1%
- maximal % inhibition of viability [16, 22]: 40.7 ± 4.6%
- maximal % inhibition of viability [16, 24]: 50.4 ± 6.9%
- maximal % inhibition of viability [17, 20]: 53.2 ± 6.3%
- maximal % inhibition of viability [17, 23]: 18.7 ± 4.1%
- maximal % inhibition of viability [17, 21]: 58.9 ± 5.3%
- maximal % inhibition of viability [17, 22]: 15.5 ± 4.6%
- maximal % inhibition of viability [17, 24]: 58.1 ± 4.1%
- maximal % inhibition of viability [18, 20]: 87.67 ± 0.5%
- maximal % inhibition of viability [18, 23]: 84 ± 4.5%
- maximal % inhibition of viability [18, 21]: 86.67 ± 0.21%
- maximal % inhibition of viability [18, 22]: 82.5 ± 3.8%
- maximal % inhibition of viability [18, 24]: 89.73 ± 0.6%
- maximal % inhibition of viability [19, 20]: 66.5 ± 25%
- maximal % inhibition of viability [19, 23]: 42.2 ± 0.7%
- maximal % inhibition of viability [19, 21]: 51.6 ± 3.1%
- maximal % inhibition of viability [19, 22]: 41.2 ± 5.3%
- maximal % inhibition of viability [19, 24]: 39.8 ± 1.5%

Source: the supplement of paper PMC7017272
